Molecules are shown by their SMILES. Where “and” joins values, the source holds several entries; their conditions need not be identical. Equal values may be shown once.

The source of these data is patent publication US20130324405A1, “NEW ANTIFUNGAL COMPOSITIONS” (DSM IP ASSETS B.V., priority 2011, published 2013).

In experiment [1] the test system is Botrytis cinerea. Nature of the experiment: In vitro antifungal activity, 96-well microtiter plates. The format is cell-based. Particulars: 0.63 ppm natamycin, 25 ppm cyazofamid, 50 ppm fenamidone, or natamycin plus one of these, 7 days at 25° C. On the procedure:
Subsequently, 100 μl of a Botrytis cinerea suspension prepared in PCB medium was used to inoculated each well with 2.5×10^3spores/ml. […] The expected antifungal activity (E in %) of the active ingredient combination was calculated according to the Colby equation (Colby, 1967): […] wherein X and Y are the observed antifungal activities (in %) of the individual active ingredients X and Y, respectively.

Experiment [2] concerns Fusarium proliferatum. The experiment is described as above. The format is cell-based. The note with it: 5 days at 25° C. On the procedure:
Subsequently, 100 μl of a Botrytis cinerea suspension prepared in PCB medium was used to inoculated each well with 2.5×10^3spores/ml.
After incubation of the microtiter plates for 7 at 25° C., the in vitro antifungal activity (%) of the individual active ingredients was assessed by calculating the reduction in mould growth observed in the presence of the active ingredient in comparison to the mould growth observed in the absence of the active ingredient. The expected antifungal activity (E in %) of the active ingredient combination was calculated according to the Colby equation (Colby, 1967): […]
wherein X and Y are the observed antifungal activities (in %) of the individual active ingredients X and Y, respectively. If the observed antifungal activity (O in %) of the combination exceeds the expected antifungal activity (E in %) of the combination and the resulting synergy factor O/E is thus >1.0, the combined application of the active ingredients leads to a synergistic antifungal effect.
Furthermore, Fusarium proliferatum was used for inoculation.

Experiment [3] concerns Fusarium proliferatum. As to the kind of experiment: Treatment of wounded, inoculated bananas with antifungal compositions (mould growth). The format is in vivo. On the procedure:
Four organic, unripe (green) bananas were used per treatment. The peel of each banana was wounded thrice using a cork borer according to the method described by de Lapeyre de Bellaire and Dubois (1987). Subsequently, each wound was inoculated with 15 μl of a Fusarium proliferatum suspension containing 1×10^5 of spores/ml. […] In addition, the antifungal compositions comprised 1.00% (w/w) methylhydroxyethylcellulose (MHEC), 0.40% (w/w) xanthan gum, 0.20% (w/w) anti-foaming agent, 0.30% (w/w) citric acid, 0.39% (w/w) lactic acid and 0.11% (w/w) potassium sorbate. The pH of the composition was 4.
The treated, unripe bananas were incubated in a closed box in the dark at 20° C. and a relative air humidity of 95%, which was obtained in the presence of a saturated Na2HPO4 aqueous solution. A ripe (yellow) banana was included in the closed box to elevate the ethylene gas level and thus induce ripening of the treated, unripe bananas.
The expected antifungal activity (E in %) of the combined antifungal composition comprising both active ingredients was calculated according to the Colby equation (Colby, 1967): […]
(§1) wherein X and Y are the observed antifungal activities (in %) of the individual active ingredients X and Y, respectively. If the observed antifungal activity (O in %) of the combination exceeds the expected antifungal activity (E in %) of the combination and the synergy factor O/E is thus >1.0, the combined application of the active ingredients leads to a synergistic antifungal effect.

Experiment [4] has as its system Botrytis cinerea. As to the kind of experiment: Treatment of wounded, inoculated strawberries by dipping in antifungal compositions (mould growth). In kind it is in vivo. The note with it: for Observed antifungal activity O (%): strawberries. On the procedure:
Twelve fresh, organic strawberries were used per treatment. Each strawberry was wounded with a 0.5 mm long cut and each wound was inoculated with 10 μl of a Botrytis cinerea suspension containing 1×10^5 of spores/ml. […] The antifungal composition also comprised 1.00% (w/w) methylhydroxyethylcellulose (MHEC), 0.40% (w/w) xanthan gum, 0.20% (w/w) anti-foaming agent, 0.30% (w/w) citric acid, 0.39% (w/w) lactic acid and 0.11% (w/w) potassium sorbate. The pH of the composition was 4.
The treated strawberries were incubated in a closed box in the dark at 20° C. […]. […] The expected antifungal activity (E in %) of the combined antifungal composition comprising both active ingredients was calculated according to the Colby equation (Colby, 1967): […]
as §1
The treated strawberries were assessed on mould growth after 3, 4, 5, 7, 8 and 9 days of incubation according to the two methods described in Example 6.

Setting [5] is: 2.5 ppm natamycin, 50 ppm cyazofamid or both.
Where [6] appears, read: 250 ppm natamycin, 500 ppm cyazofamid or both, 27 days at 20° C.
Setting [7] is: 500 ppm natamycin, 2000 ppm cyazofamid or both, 21 days at 20° C.
[8] abbreviates: 500 ppm natamycin, 2000 ppm cyazofamid or both, 23 days at 20° C.
Setting [9] is: 500 ppm natamycin, 2000 ppm cyazofamid or both, 24 days at 20° C.
Where [10] appears, read: 50 ppm natamycin, 250 ppm fenamidone or both, Day 3 at 20° C.
[11] abbreviates: 50 ppm natamycin, 250 ppm fenamidone or both, Day 4 at 20° C.
[12] abbreviates: 50 ppm natamycin, 250 ppm fenamidone or both, Day 5 at 20° C.
Setting [13] is: 500 ppm natamycin, 1000 ppm fenamidone or both, Day 3 at 20° C.
[14] abbreviates: 500 ppm natamycin, 1000 ppm fenamidone or both, Day 5 at 20° C.
Where [15] appears, read: 50 ppm natamycin, 250 ppm fenamidone or both, 3 days at 20° C.
The mark [16] stands for this setting: 50 ppm natamycin, 250 ppm fenamidone or both, 4 days at 20° C.
[17] abbreviates: 50 ppm natamycin, 250 ppm fenamidone or both, 5 days at 20° C.
Where [18] appears, read: 50 ppm natamycin, 250 ppm fenamidone or both, 7 days at 20° C.
[19] abbreviates: 50 ppm natamycin, 250 ppm fenamidone or both, 8 days at 20° C.
Where [20] appears, read: 50 ppm natamycin, 250 ppm fenamidone or both, 9 days at 20° C.
[21] abbreviates: 500 ppm natamycin, 1000 ppm fenamidone or both, 3 days at 20° C.
Where [22] appears, read: 500 ppm natamycin, 1000 ppm fenamidone or both, 4 days at 20° C.
Where [23] appears, read: 500 ppm natamycin, 1000 ppm fenamidone or both, 5 days at 20° C.
The mark [24] stands for this setting: 500 ppm natamycin, 1000 ppm fenamidone or both, 7 days at 20° C.
The mark [25] stands for this setting: 500 ppm natamycin, 1000 ppm fenamidone or both, 8 days at 20° C.
[26] abbreviates: 500 ppm natamycin, 1000 ppm fenamidone or both, 9 days at 20° C.

For the molecule `Cc1ccc(-c2c(Cl)nc(C#N)n2S(=O)(=O)N(C)C)cc1` [Cyazofamid, cyazofamid], the “Observed antifungal activity O (%)” value in experiment [1] stood at 0%; in experiment [2] (setting [5]), 0%; in experiment [2] (75 ppm cyazofamid alone or with 2.5 ppm natamycin), 0%; in experiment [3] (50 ppm natamycin, 250 ppm cyazofamid or both, 27 days at 20° C.), 0%; in experiment [3] (setting [6]), 1%; in experiment [3] (setting [7]), 0%. Also, the “Observed antifungal activity O (%)” value in experiment [3] (setting [8]) and in experiment [3] (setting [9]) was 0% throughout.
On to `CSC1=N[C@@](C)(c2ccccc2)C(=O)N1Nc1ccccc1` [Fenamidone, fenamidone], for which the “Observed antifungal activity O (%)” value in experiment [1], in experiment [4] (setting [15]), in experiment [4] (setting [16]), in experiment [4] (setting [17]), in experiment [4] (setting [18]) and in experiment [4] (setting [19]) was 0% in each case. For the same molecule, the “Observed antifungal activity O (%)” value in experiment [4] (setting [20]) was found to be 0%; in experiment [4] (setting [21]) it was 9%; in experiment [4] (setting [22]) it was 0%; in experiment [4] (setting [23]), 0%; in experiment [4] (setting [24]) it was 0%; in experiment [4] (setting [25]), 0%. The “Observed antifungal activity O (%)” value in experiment [4] (setting [26]) was 0%. For the same molecule, the “Number of moulded strawberries/total number of 12 strawberries” value in experiment [4] (setting [10]) is 12 and 12/12; in experiment [4] (setting [11]), 12 and 12/12; in experiment [4] (setting [12]), 12 and 12/12; in experiment [4] (setting [13]), 12 and 12/12; in experiment [4] (setting [14]), 12 and 12/12.
With `C[C@@H]1C/C=C/C=C/C=C/C=C/[C@H](O[C@@H]2O[C@H](C)[C@@H](O)[C@H](N)[C@@H]2O)C[C@@H]2O[C@](O)(C[C@@H](O)C[C@H]3O[C@@H]3/C=C/C(=O)O1)C[C@H](O)[C@H]2C(=O)O` [Natamycin, natamycin], the “Observed antifungal activity O (%)” value is 0% in experiment [1]; 0% in experiment [2] (setting [5]); 4% in experiment [3] (setting [6]); 94% in experiment [3] (setting [7]); 86% in experiment [3] (setting [8]); 84% in experiment [3] (setting [9]). The “Observed antifungal activity O (%)” value is on record as 64% in experiment [4] (setting [15]); 50% in experiment [4] (setting [16]); 17% in experiment [4] (setting [17]); 17% in experiment [4] (setting [18]); 10% in experiment [4] (setting [19]); 0% in experiment [4] (setting [20]). In addition, the “Observed antifungal activity O (%)” value worked out at 75% in experiment [4] (setting [21]); 69% in experiment [4] (setting [22]); 31% in experiment [4] (setting [23]); 13% in experiment [4] (setting [24]); 0% in experiment [4] (setting [25]); 0% in experiment [4] (setting [26]). In addition, the “Number of moulded strawberries/total number of 12 strawberries” value was 3 and 3/12 in experiment [4] (setting [10]); 5 and 5/12 in experiment [4] (setting [11]); 10 and 10/12 in experiment [4] (setting [12]); 3 and 3/12 in experiment [4] (setting [13]); 11 and 11/12 in experiment [4] (setting [14]).
